Results on two compounds are retold here after patent US7803823B2, “2-amino-4,5-trisubstituted thiazolyl derivatives” (Janssen Pharmaceutica NV, priority 2001, dated 2010).

For data set [1], the system named is IL-12p40 production. Put plainly: In vitro inhibition of IL-12p40 production in human blood (LPS-stimulated whole blood, sandwich ELISA). It is filed as cell-based. The conditions noted are these: lipopolysaccharide 100 ng/ml, 24 hours, read-out: % inhib. IL-12 (p40); for inhibition at 1 µM: test dose 1 × 10^−6 M. As for the experimental part:
(§1) Peripheral blood from healthy male donors was drawn into heparinized syringes (12.5 U heparin/ml). Blood samples were three-fold diluted in RMPI 1640 medium (Life Technologies, Belgium) supplemented with 2 mM L-glutamine, 100 U/ml penicillin and 100 μg/ml streptomycin, and 300 μl fractions were distributed in 24-well multidisc plates (Nunc, Roskilde, Denmark). Blood samples were preincubated (60 minutes at 37° C.) in a humidified 6% CO2-atmosphere with 100 μl of drug solvent (final concentration 0.02% dimethylsulfoxide in RPMI 1640) or with 100 μl of an appropriate dose of test compound before being stimulated by the addition of 100 μl of lipopolysaccharide at a final concentration of 100 ng/ml. After 24 hours, cell-free supernatant fluids were collected by centrifugation and stored at −20° C. until tested for the presence of IL-12p40.
(§2) Cytokine protein concentrations were determined by sandwich ELISA as described in Van Wauwe et al. (1996, Inflamm Res, 45, 357-363). Murine monoclonals used as capture antibodies to human cytokines were obtained from R&D Systems (Abingdon, United Kingdom) and code named MAB210 and MAB611 for TNF-α and IL-12 respectively. Biotinylated goat polyclonal antibodies used to detect human cytokines were from R&D Systems (BAF210, BAF219). Cytokine levels were calculated from standard curves using recombinant cytokines supplied by R&D Systems.

Data set [2] has as its system TNF-α production. Put plainly: In vitro inhibition of TNF-α production in human blood (LPS-stimulated whole blood, sandwich ELISA). It is filed as cell-based. The conditions noted are these: lipopolysaccharide 100 ng/ml, 6 hours, read-out: % inhib. TNF-α. As for the experimental part: as §1, with “After 6” for “After 24”, “of TNF-α.” for “of IL-12p40.”
as §2

Structures are written as SMILES.

For `Fc1sc(Nc2cccc(C(F)(F)F)c2)nc1-c1cccnc1` [Compound 1], the melting point lay within 208 to 210 °C. In addition, in data set [1], the inhibition at 1 µM is 54%. Moreover, the inhibition at 0.1 µM in data set [1] (test dose 1 × 10^−7 M) amounted to 56%. Moreover, the inhibition at 1 µM in data set [2] (test dose 1 × 10^−6 M) came out at 60%. Further, the inhibition at 0.1 µM in data set [2] (test dose 1 × 10^−7 M) came to 58%.

With `CC(O)c1sc(Nc2cccc(C(F)(F)F)c2)nc1-c1cccnc1` (stereo not drawn) [Compound 14], the inhibition at 1 µM in data set [1] turned out to be 52%.
